The test system of this experiment is human HEK293 cells. The experiment can be described thus: High fidelity SpCas9 RNP nucleofection, HEKSite4 target site, HEK293 cells, editing frequency by NGS. It is filed as cell-based. Conditions: at least one of the three dosages tested (Table 10), FIG. 6. As for the experimental part: A high fidelity SpCas9 protein (Catalog No. CAS9 Plus) and a synthetic single guide RNA (sgRNA) with the spacer sequence of 5′-[…]-3′ (SEQ ID NO: 46) targeting the human HEKSite4 locus were purchased from MilliporeSigma. Pentosan polysulfate sodium salt with a formula of (C5H6Na2O10S2)n was purchased from Selleckchem (Catalog No. S3500). A pentosan polysulfate solution was prepared by dissolving the chemical in water at 50 mg/ml. The molecular structural unit of the polyanionic polymer is as follows: […]
Genomic DNA extracts from transfected cells were prepared using QuickExtract Solution. Targeted genomic region was PCR amplified with NGS primers using JumpStart™ Taq ReadyMix™ for Quantitative PCR Kit (MilliporeSigma) with the following cycling condition: 98° C./2 m; 98° C./15 s, 62° C./30 s, and 72° C./45 s for 34 cycles; 72° C./5 m.
Primary PCR products were then reamplified with Illumina index primers using JumpStart™ Taq ReadyMix™ for Quantitative PCR Kit (MilliporeSigma) with the following cycling condition: 95° C./3 m; 95° C./30 s, 55° C./30 s, and 72° C./30 s for 8 cycles; 72° C./5 m. Indexed PCR products were purified with Select-a-Size DNA Clean & Concentrator kit (Zymo) and quantified by PicoGreen (ThermoFisher). […] The FASTQ files for each sample were analyzed for genome editing frequency. […]

For Collagen from rat tail, the “level of editing efficiency versus the control buffer” value is reported as “significantly higher”.

Values taken from patent US20250066816A1, “ELECTROPORATION ENHANCERS FOR CRISPR-CAS SYSTEMS” (SIGMA-ALDRICH CO. LLC, priority 2021, published 2025).
